From patent US20240381760A1, “Compound, Semiconductor Layer Comprising Compound and Organic Electronic Device” (Novaled GmbH, priority 2021, published 2024)

How the values were obtained:
Type in all cases: physicochemical
[1] = Decomposition temperature Tdec by TGA-DSC; conditions: onset of decomposition in TGA, 10 K/min, nitrogen
Description: The decomposition temperature Tdec is measured by loading a sample of 9 to 11 mg into a Mettler Toledo 100 μL aluminum pan without lid under nitrogen in a Mettler Toledo TGA-DSC 1 machine. The following heating program was used: 25° C. isothermal for 3 min; 25° C. to 600° C. with 10 K/min. The decomposition temperature was determined based on the onset of the decomposition in TGA.

[2] = Sublimation temperature Tsubl in sublimation apparatus; conditions: 10−5 mbar
Text: Under nitrogen in a glovebox, 0.5 to 5 g compound are loaded into the evaporation source of a sublimation apparatus. The sublimation apparatus consist of an inner glass tube consisting of bulbs with a diameter of 3 cm which are placed inside a glass tube with a diameter of 3.5 cm. The sublimation apparatus is placed inside a tube oven (Creaphys DSU 05/2.1). The sublimation apparatus is evacuated via a membrane pump (Pfeiffer Vacuum MVP 055-3C) and a turbo pump (Pfeiffer Vacuum THM071 YP). The pressure is measured between the sublimation apparatus and the turbo pump using a pressure gauge (Pfeiffer Vacuum PKR 251). When the pressure has been reduced to 10−5 mbar, the temperature is increased in increments of 10 to 30 K till the compound starts to be deposited in the harvesting zone of the sublimation apparatus. The temperature is further increased in increments of 10 to 30 K till a sublimation rate is achieved where the compound in the source is visibly depleted over 30 min to 1 hour and a substantial amount of compound has accumulated in the harvesting zone. The sublimation temperature, also named Tsubl, is the temperature inside the sublimation apparatus at which the compound is deposited in the harvesting zone at a visible rate and is measured in degree Celsius.

[3] = Rate onset temperature TRO in VTE source with QCM detector; conditions: 15 K/min, less than 10−5 mbar
Description: The rate onset temperature (TRO) is determined by loading 100 mg compound into a VTE source. As VTE source a point source for organic materials may be used as supplied by Kurt J. Lesker Company (www.lesker.com) or CreaPhys GmbH (http://www.creaphys.com). The VTE source is heated at a constant rate of 15 K/min at a pressure of less than 10−5 mbar and the temperature inside the source measured with a thermocouple. Evaporation of the compound is detected with a QCM detector which detects deposition of the compound on the quartz crystal of the detector. The deposition rate on the quartz crystal is measured in Angstrom per second. To determine the rate onset temperature, the deposition rate is plotted against the VTE source temperature. The rate onset is the temperature at which noticeable deposition on the QCM detector occurs. For accurate results, the VTE source is heated and cooled three time and only results from the second and third run are used to determine the rate onset temperature.
To achieve good control over the evaporation rate of an organic compound, the rate onset temperature may be in the range of 200 to 255° C. If the rate onset temperature is below 200° C. the evaporation may be too rapid and therefore difficult to control. If the rate onset temperature is above 255° C. the evaporation rate may be too low which may result in low tact time and decomposition of the organic compound in VTE source may occur due to prolonged exposure to elevated temperatures.
The rate onset temperature is an indirect measure of the volatility of a compound. The higher the rate onset temperature the lower is the volatility of a compound.

[4] = Solubility in benzonitrile

| Tdec [1] [°C] | Sublimation temperature Tsubl [2] | Rate onset temperature TRO [3] [°C] | Structure (SMILES) | Solubility in benzonitrile ([4]; at 20° C.) [mg/mL] | Solubility in benzonitrile ([4]; at 60° C. (footnote 2)) [mg/ml^2)] |
| --- | --- | --- | --- | --- | --- |
| >280 | 110-120 °C | <100 | CC(=O)C=C(C)[O-].CC(=O)C=C(C)[O-].[Cu+2] [CC-1, Cu(acac)2] |  |  |
| >185 | 95-100 °C | <100 | CC(=O)/C=C(\[O-])C(F)(F)F.CC(=O)/C=C(\[O-])C(F)(F)F.[Cu+2] [CC-2, Cu(tfac)2] |  |  |
| >100 | decomposition | <100 | CC(=O)C=C([O-])C(F)(F)F.CC(=O)C=C([O-])C(F)(F)F.CC(=O)C=C([O-])C(F)(F)F.[Bi+3] [CC-3, Bi(tfac)3] |  |  |
|  | decomposition | <100 | O=C(C=C([O-])C(F)(F)F)C(F)(F)F.O=C(C=C([O-])C(F)(F)F)C(F)(F)F.O=C(C=C([O-])C(F)(F)F)C(F)(F)F.[Bi+3] [CC-4, Bi(hfac)3] |  |  |
| >200 | 120 °C | <100 | CC(C)(C)C(=O)C=C([O-])C(F)(F)C(F)(F)C(F)(F)F.CC(C)(C)C(=O)C=C([O-])C(F)(F)C(F)(F)C(F)(F)F.CC(C)(C)C(=O)C=C([O-])C(F)(F)C(F)(F)C(F)(F)F.[Bi+3] [CC-5, Bi(fod)3] |  |  |
| >260 | 170 °C | 101 | CC(C)(C)/C([O-])=C/C(=O)C(F)(F)C(F)(F)C(F)(F)F.CC(C)(C)/C([O-])=C/C(=O)C(F)(F)C(F)(F)C(F)(F)F.CC(C)(C)/C([O-])=C/C(=O)C(F)(F)C(F)(F)C(F)(F)F.[La+3] [CC-6, La(fod)3] |  |  |

| Structure (SMILES) | Tdec [1] [°C] | Sublimation temperature Tsubl [2] | Rate onset temperature TRO [3] [°C] | Solubility in benzonitrile ([4]; at 20° C.) [mg/mL] | Solubility in benzonitrile ([4]; at 60° C. (footnote 2)) [mg/ml^2)] |
| --- | --- | --- | --- | --- | --- |
| N#C/C(C(=O)c1cc(C(F)(F)F)cc(C(F)(F)F)c1)=C(/[O][Cu][O]/C(=C(/C#N)C(=O)c1cc(C(F)(F)F)cc(C(F)(F)F)c1)c1cc(C(F)(F)F)cc(C(F)(F)F)c1)c1cc(C(F)(F)F)cc(C(F)(F)F)c1 [MC-1, bis(((Z)-1,3-bis(3,5-bis(trifluoromethyl)phenyl)-2-cyano-3-oxoprop-1-en-1-yl)oxy)copper] | >319 | 261 °C | 204 |  |  |
| N#C/C(C(=O)C(F)(F)C(F)(F)F)=C(/[O][Cu][O]/C(=C(/C#N)C(=O)C(F)(F)C(F)(F)F)c1ccc(-c2cc(C(F)(F)F)cc(C(F)(F)F)c2)cc1)c1ccc(-c2cc(C(F)(F)F)cc(C(F)(F)F)c2)cc1 [MC-2, bis(((Z)-1-(3′,5′-bis(trifluoromethyl)-[1,1′-biphenyl]-4-yl)-2-cyano-4,4,5,5,5-pentafluoro-3-oxopent-1-en-1-yl)oxy)copper] | >330 | decomposition |  | >10 |  |
| C/C(C(=O)c1ccnc(C(F)(F)F)c1)=C(/[O][Cu][O]/C(=C(/C)C(=O)c1ccnc(C(F)(F)F)c1)c1ccnc(C(F)(F)F)c1)c1ccnc(C(F)(F)F)c1 [MC-3, bis(((Z)-2-methyl-3-oxo-1,3-bis(2-(trifluoromethyl)pyridin-4-yl)prop-1-en-1-yl)oxy)copper] | >300 | decomposition |  |  | 10 |
